Common to all, as to test: biochemical
Experiment [1] has as its target T1, panel of 374 wild-type kinases (Homo sapiens, UniProt Q9H0K1).
T1 construct: purchased Reaction Biology Corporation
To be noted: read-out: % Enzyme Activity (relative to DMSO controls), kinase SIK2.

In experiment [2] the target is T2, panel of 374 wild-type kinases (Homo sapiens, UniProt Q9UK32).
T2 construct: purchased Reaction Biology Corporation
To be noted: read-out: % Enzyme Activity (relative to DMSO controls), kinase RSK4.

The target in experiment [3] is T3, panel of 374 wild-type kinases (Homo sapiens, UniProt P49674).
T3 construct: purchased Reaction Biology Corporation
Conditions: read-out: % Enzyme Activity (relative to DMSO controls), CK1epsilon.

Experiment [4] deals with T4, panel of 374 wild-type kinases (Homo sapiens, UniProt P06239).
T4 construct: purchased Reaction Biology Corporation
Conditions: read-out: % Enzyme Activity (relative to DMSO controls), LCK.

Experiment [5] has as its target T5, panel of 374 wild-type kinases (Homo sapiens, UniProt Q9NR20).
T5 construct: purchased Reaction Biology Corporation
T5 sequence (Q9NR20 1-520): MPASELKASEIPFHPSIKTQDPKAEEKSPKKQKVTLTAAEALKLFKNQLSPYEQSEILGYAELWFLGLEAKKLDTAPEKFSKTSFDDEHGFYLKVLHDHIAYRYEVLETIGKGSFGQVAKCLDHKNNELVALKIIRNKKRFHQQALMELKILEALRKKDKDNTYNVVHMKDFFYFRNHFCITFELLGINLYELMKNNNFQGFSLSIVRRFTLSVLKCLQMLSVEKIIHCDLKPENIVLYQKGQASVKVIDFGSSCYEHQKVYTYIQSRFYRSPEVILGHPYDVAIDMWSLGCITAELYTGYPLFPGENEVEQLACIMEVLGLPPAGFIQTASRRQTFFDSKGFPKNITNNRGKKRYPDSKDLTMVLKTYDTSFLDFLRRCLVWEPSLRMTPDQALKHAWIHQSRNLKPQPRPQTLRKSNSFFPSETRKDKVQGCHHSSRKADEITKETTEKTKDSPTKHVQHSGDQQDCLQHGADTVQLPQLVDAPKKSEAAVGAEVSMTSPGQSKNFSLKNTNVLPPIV
To be noted: read-out: % Enzyme Activity (relative to DMSO controls), DYRK4.

Experiment [6] addresses T6, panel of 374 wild-type kinases (Homo sapiens, UniProt Q14012).
T6 construct: purchased Reaction Biology Corporation
To be noted: read-out: % Enzyme Activity (relative to DMSO controls), CAMK1a.

In experiment [7] the target is T7, panel of 374 wild-type kinases (Homo sapiens, UniProt P51451).
T7 construct: purchased Reaction Biology Corporation
T7 sequence (P51451 whole entry): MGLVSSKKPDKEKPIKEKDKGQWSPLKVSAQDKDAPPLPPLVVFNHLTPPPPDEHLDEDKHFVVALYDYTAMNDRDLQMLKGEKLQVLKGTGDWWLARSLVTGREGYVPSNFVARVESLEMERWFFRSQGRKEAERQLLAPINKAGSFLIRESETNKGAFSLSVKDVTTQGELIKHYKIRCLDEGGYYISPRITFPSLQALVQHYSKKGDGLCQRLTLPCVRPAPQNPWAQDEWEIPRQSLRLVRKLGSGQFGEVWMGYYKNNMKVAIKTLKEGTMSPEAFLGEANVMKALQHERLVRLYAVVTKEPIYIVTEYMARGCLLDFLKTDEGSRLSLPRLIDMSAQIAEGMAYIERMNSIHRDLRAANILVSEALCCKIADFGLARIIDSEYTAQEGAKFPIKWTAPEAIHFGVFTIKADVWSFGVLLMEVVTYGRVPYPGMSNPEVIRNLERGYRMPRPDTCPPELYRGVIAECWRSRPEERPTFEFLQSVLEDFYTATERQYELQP
Conditions: read-out: % Enzyme Activity (relative to DMSO controls), BLK.

The target of experiment [8] is T8, panel of 374 wild-type kinases (Homo sapiens, UniProt Q9UPE1).
T8 construct: purchased Reaction Biology Corporation
T8 sequence (Q9UPE1 whole entry): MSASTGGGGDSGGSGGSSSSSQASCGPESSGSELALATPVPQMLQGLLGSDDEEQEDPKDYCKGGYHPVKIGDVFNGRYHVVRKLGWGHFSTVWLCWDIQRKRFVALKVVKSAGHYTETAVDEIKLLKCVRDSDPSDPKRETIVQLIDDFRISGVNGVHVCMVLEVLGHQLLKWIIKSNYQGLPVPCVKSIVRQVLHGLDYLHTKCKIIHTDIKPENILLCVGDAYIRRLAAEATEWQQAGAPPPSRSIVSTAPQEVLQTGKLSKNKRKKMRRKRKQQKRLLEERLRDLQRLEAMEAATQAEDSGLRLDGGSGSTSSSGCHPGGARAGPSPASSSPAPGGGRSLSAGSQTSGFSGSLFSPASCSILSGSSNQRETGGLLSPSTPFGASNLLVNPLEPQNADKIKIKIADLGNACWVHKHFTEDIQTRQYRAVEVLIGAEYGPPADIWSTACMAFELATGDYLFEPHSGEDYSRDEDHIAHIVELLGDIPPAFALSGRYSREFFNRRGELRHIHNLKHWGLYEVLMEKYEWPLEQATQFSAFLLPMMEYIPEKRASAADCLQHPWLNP
Conditions: read-out: % Enzyme Activity (relative to DMSO controls), MSSK1/STK23.

Experiment [9] deals with T9, panel of 374 wild-type kinases (Homo sapiens, UniProt Q07912).
T9 construct: purchased Reaction Biology Corporation
Conditions: read-out: % Enzyme Activity (relative to DMSO controls), ACK1.

Experiment [10] deals with T10, panel of 374 wild-type kinases (Homo sapiens, UniProt Q16620).
T10 construct: purchased Reaction Biology Corporation
Conditions: read-out: % Enzyme Activity (relative to DMSO controls), kinase TRKB.

The target in experiment [11] is T11, panel of 374 wild-type kinases (Homo sapiens, UniProt O00141).
T11 construct: purchased Reaction Biology Corporation
T11 sequence (O00141 1-431): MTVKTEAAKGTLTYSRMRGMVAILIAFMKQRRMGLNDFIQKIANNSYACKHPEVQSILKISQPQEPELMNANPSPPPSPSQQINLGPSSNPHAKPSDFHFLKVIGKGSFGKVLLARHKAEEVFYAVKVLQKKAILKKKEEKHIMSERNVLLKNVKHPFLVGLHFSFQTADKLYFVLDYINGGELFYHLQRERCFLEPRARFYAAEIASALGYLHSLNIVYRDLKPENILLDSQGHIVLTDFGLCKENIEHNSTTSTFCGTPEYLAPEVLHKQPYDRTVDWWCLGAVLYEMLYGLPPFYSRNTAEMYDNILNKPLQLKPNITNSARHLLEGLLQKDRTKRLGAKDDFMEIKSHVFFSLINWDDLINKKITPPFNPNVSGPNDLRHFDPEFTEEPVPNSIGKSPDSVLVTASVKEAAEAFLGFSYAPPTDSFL
Conditions: read-out: % Enzyme Activity (relative to DMSO controls), kinase SGK1.

Experiment [12] concerns the target T12, panel of 374 wild-type kinases (Homo sapiens, UniProt P53667).
T12 construct: purchased Reaction Biology Corporation
Conditions: read-out: % Enzyme Activity (relative to DMSO controls), LIMK1.

For experiment [13], the target named is T13, panel of 374 wild-type kinases (Homo sapiens, UniProt Q9H422).
T13 construct: purchased Reaction Biology Corporation
T13 sequence (Q9H422 whole entry): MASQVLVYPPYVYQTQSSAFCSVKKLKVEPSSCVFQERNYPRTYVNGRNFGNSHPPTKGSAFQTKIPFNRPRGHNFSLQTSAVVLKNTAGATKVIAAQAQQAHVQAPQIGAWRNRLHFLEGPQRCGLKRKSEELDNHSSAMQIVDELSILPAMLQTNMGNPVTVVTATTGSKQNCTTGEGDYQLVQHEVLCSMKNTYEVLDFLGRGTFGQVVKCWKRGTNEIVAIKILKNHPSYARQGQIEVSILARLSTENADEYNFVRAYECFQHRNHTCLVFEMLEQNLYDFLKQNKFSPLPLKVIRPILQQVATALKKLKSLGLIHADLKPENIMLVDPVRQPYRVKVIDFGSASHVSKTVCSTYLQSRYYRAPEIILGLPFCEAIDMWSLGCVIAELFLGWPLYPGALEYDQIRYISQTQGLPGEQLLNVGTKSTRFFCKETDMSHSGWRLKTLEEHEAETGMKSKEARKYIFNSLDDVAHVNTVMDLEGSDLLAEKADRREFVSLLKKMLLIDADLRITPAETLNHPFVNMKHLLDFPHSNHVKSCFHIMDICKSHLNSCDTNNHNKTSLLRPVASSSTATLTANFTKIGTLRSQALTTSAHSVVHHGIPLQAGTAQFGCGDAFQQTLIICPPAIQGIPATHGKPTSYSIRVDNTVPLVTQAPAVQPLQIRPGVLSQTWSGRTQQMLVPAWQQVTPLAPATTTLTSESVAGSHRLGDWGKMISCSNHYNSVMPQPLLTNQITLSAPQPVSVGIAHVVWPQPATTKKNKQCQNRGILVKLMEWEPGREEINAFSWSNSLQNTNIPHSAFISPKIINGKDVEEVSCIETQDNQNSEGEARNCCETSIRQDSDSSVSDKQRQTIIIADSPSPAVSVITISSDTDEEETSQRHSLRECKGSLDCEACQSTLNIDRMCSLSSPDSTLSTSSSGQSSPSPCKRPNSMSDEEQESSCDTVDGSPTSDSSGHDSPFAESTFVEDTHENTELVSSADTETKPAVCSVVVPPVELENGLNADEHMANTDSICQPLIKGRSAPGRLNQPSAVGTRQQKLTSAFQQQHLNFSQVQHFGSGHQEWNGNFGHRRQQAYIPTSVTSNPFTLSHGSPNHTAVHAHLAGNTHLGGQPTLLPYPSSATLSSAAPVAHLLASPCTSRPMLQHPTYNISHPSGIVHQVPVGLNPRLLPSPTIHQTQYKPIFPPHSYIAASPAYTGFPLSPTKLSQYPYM
Conditions: read-out: % Enzyme Activity (relative to DMSO controls), HIPK3.

Experiment [14] concerns the target T14, panel of 374 wild-type kinases (Homo sapiens, UniProt Q16584).
T14 construct: purchased Reaction Biology Corporation
To be noted: read-out: % Enzyme Activity (relative to DMSO controls), MLK3/MAP3K11.

For experiment [15], the target named is T15, panel of 374 wild-type kinases (Homo sapiens, UniProt Q86Y07).
T15 construct: purchased Reaction Biology Corporation
T15 sequence (Q86Y07 whole entry): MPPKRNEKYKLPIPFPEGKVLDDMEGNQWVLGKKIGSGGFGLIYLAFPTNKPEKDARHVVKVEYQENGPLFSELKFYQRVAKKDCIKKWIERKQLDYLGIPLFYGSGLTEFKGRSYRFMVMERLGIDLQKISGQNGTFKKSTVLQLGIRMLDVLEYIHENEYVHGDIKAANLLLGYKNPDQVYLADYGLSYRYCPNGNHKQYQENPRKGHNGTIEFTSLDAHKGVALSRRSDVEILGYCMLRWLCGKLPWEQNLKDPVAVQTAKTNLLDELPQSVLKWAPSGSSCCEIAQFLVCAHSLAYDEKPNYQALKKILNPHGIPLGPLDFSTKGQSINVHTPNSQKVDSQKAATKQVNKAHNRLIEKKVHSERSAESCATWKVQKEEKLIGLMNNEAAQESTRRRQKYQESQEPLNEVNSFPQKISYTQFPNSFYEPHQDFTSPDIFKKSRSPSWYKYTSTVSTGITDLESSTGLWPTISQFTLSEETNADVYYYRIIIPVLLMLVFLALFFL
Conditions: read-out: % Enzyme Activity (relative to DMSO controls), kinase VRK2.

In experiment [16] the target is T16, panel of 374 wild-type kinases (Homo sapiens, UniProt Q04759).
T16 construct: purchased Reaction Biology Corporation
T16 sequence (Q04759 whole entry): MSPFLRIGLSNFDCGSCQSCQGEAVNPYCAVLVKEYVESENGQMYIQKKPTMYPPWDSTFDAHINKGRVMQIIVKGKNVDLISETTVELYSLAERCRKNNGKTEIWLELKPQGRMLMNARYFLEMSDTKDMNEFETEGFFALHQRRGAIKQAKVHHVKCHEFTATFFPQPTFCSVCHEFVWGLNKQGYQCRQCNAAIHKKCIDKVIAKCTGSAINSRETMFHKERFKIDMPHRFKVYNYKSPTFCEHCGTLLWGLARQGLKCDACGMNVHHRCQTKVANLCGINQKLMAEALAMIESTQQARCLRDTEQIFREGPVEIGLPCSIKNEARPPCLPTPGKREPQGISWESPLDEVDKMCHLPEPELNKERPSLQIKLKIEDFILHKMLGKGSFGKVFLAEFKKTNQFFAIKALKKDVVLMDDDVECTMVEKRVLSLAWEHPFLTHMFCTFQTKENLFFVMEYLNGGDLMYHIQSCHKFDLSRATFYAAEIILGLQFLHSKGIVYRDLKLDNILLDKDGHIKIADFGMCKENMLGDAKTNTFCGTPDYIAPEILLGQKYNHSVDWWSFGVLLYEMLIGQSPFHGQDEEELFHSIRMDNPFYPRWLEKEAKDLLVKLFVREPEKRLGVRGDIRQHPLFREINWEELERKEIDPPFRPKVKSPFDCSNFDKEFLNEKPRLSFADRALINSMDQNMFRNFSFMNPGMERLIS
To be noted: read-out: % Enzyme Activity (relative to DMSO controls), kinase PKCtheta.

T14 sequence (Q16584 whole entry): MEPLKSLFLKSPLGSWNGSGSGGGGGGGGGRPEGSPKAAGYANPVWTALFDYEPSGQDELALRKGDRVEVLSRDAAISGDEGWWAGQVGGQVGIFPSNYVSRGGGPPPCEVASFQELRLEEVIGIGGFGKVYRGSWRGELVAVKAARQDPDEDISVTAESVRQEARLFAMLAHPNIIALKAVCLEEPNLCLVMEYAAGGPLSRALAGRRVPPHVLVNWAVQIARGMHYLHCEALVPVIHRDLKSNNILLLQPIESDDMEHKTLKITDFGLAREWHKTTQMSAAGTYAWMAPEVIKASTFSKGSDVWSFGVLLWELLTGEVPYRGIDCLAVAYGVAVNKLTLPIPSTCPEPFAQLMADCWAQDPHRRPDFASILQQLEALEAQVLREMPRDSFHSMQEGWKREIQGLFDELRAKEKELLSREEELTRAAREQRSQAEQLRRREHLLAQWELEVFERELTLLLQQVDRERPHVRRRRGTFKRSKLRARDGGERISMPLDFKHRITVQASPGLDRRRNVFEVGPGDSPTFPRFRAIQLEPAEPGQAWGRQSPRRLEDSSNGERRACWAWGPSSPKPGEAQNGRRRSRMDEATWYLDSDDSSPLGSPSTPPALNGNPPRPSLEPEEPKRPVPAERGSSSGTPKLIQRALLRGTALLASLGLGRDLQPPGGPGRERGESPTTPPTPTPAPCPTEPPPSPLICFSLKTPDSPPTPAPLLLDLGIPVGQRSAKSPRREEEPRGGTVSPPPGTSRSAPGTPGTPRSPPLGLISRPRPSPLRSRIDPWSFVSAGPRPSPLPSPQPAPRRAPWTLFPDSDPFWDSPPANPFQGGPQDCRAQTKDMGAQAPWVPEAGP
T12 sequence (P53667 whole entry): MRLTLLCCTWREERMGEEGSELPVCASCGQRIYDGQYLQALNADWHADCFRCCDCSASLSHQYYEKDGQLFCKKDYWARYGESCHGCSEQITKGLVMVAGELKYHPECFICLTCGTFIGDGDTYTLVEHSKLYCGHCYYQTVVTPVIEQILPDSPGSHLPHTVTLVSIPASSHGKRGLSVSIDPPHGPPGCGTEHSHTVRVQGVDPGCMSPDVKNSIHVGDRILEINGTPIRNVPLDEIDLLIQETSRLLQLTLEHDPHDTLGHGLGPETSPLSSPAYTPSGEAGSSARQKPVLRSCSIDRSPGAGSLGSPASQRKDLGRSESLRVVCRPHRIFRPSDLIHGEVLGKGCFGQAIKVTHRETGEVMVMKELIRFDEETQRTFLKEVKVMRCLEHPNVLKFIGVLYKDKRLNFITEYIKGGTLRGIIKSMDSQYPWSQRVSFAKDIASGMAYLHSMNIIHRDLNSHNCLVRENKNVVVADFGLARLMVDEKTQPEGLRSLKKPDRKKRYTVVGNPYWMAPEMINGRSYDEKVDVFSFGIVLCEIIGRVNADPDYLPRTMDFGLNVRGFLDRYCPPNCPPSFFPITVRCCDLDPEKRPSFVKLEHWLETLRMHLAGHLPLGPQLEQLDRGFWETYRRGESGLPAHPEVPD

In the case of `O=C(Nc1cnn(-c2csc(C(=O)NC3COC3)c2)c1)Nc1ccccc1Cl` [Compound 17, 4-(4-(3-(2-chlorophenyl)ureido)-1H-pyrazol-1-yl)-N-(oxetan-3-yl)thiophene-2-carboxamide], the remaining activity at 5 µM in experiment [1] was determined as 97%; in experiment [2], 107%; in experiment [3], 89.6%; in [4] it was 99.1%; in experiment [5], 94.6%; in [6] it was 87.1%. Besides, the remaining activity at 5 µM in [7] amounted to 79.2%; in [8] it was 91.9%; in experiment [9], 85.6%; in [10], 84.2%; in [11], 93.7%; in experiment [12], 96.2%. Besides, the remaining activity at 5 µM in experiment [13] turned out to be 97.6%; in experiment [14], 93.5%; in [15] it was 103%; in [16], 114%.
Consider `O=C(Nc1cnn(-c2csc(C(=O)NC3COC3)c2)c1)Nc1c(F)cccc1Cl` [Compound 25, 4-(4-(3-(2-chloro-6-fluorophenyl)ureido)-1H-pyrazol-1-yl)-N-(oxetan-3-yl)thiophene-2-carboxamide], for which the remaining activity at 5 µM in experiment [1] amounted to 95.8%; in experiment [2], 92.2%; in experiment [3], 88.6%; in experiment [4], 94.2%; in experiment [5], 96.2%; in experiment [6] it was 98%. The remaining activity at 5 µM came to 96.1% in experiment [7]; 89.8% in experiment [8]; 94.6% in experiment [9]; 91.5% in experiment [10]; 95.4% in experiment [11]; 104% in experiment [12]. Also, the remaining activity at 5 µM is 98.8% in experiment [13], 84.7% in [14], 102% in experiment [15] and 94.7% in [16].
Take `Cc1sc(C(=O)NC2COC2)cc1-n1cc(NC(=O)Nc2c(F)cccc2Cl)cn1` [Compound 27, 4-(4-(3-(2-chloro-6-fluorophenyl)ureido)-1H-pyrazol-1-yl)-5-methyl-N-(oxetan-3-yl)thiophene-2-carboxamide]: the remaining activity at 10 µM in [1] (10 uM) stood at 89.8%; in [2] (10 uM) it was 116%; in [3] (10 uM), 97.9%; in [4] (10 uM), 46.5%; in experiment [5] (10 uM), 93.7%; in experiment [6] (10 uM) it was 115%. Further, the remaining activity at 10 µM in experiment [7] (10 uM) is 112%; in [8] (10 uM) it was 98.9%; in experiment [9] (10 uM), 106%; in experiment [10] (10 uM) it was 92.4%; in [11] (10 uM), 115%; in experiment [12] (10 uM) it was 105%. The remaining activity at 10 µM is 88.5% in [13] (10 uM), 90.7% in experiment [14] (10 uM), 102% in experiment [15] (10 uM) and 96.9% in experiment [16] (10 uM).
